Tested on: Cyperus esculentus (CYPES)
Assay: Pre-emergence herbicidal action against CYPES
Format: in vivo
Details: 320 g/ha, scored visually after about 3 weeks vs untreated controls
Description: CYPES: Cyperus esculentus 1. Pre-Emergence Herbicidal Action and Crop Plant Compatibility Seeds of monocotyledonous and dicotyledonous weed plants and crop plants are placed in plastic or organic planting pots and covered with soil. The compounds of the invention, formulated in the form of wettable powders (WP) or as emulsion concentrates (EC), are then applied onto the surface of the covering soil as aqueous suspension or emulsion with addition of 0.5% additive at a water application rate of […] (converted). After the treatment, the pots are placed in a greenhouse and kept under good growth conditions for the trial plants. After about 3 weeks, the effect of the preparations is scored visually in comparison with untreated controls as percentages. The tables below show the herbicidal activity of numerous compounds according to the invention against important harmful plants. For example, 100% activity=the plants have died, 0% activity=like control plants.

Cn1ncc(C(=O)c2ccc(C(F)(F)F)c3c2OC[S+]3[O-])c1O (stereo not shown) [Example 1-28]
Pre-emergence action against CYPES: 90%

Source: patent publication US20210323950A1, “HERBICIDALLY ACTIVE BICYCLIC BENZOYLPYRAZOLES” (Bayer Aktiengesellschaft, priority 2018, published 2021)
